Consider 6 compounds from article PMC7579906, “Discovery of a dual inhibitor of NQO1 and GSTP1 for treating glioblastoma” (Journal of Hematology & Oncology, 2020).

The first test deals with U87MG/EGFRvIII cells. The experiment in a line: Cell proliferation (MTT) assay, U87MG/EGFRvIII. Conditions: Homo sapiens, U-87 MG; inhibition of cell proliferation/viability; MNPC treated 72 h. It counts as cell-based, human. How it is done: (§1) The human glioblastoma cell line U87MG was stably transfected with vector control, pLHCX-EGFRvIII, pGFP-NQO1 and pRS-GSTP1, which were supplemented with various antibiotics. For EGFRvIII, 150 μg/mL of hygromycin was used; for pGFP-NQO1 and pRS-GSTP1, 0.7 μg/mL of puromycin was employed. The cells were supplemented with 10% fetal bovine serum (Hyclone, USA), penicillin (100 U/ml) and streptomycin (100 U/ml) (ABAM Life Technologies, USA) in a humidified incubator with 5% CO2 at 37 °C.
(§2) In vitro assessment was implemented for cell proliferation using the 3-(4, 5- dimethylthiazol- 2-yl)-2,5-diphenyltetrazolium bromide (MTT) assay. After different treatments with specific time periods, 10 μL of MTT (5 mg/mL in PBS, Sigma, USA) was added to each well and the plates were incubated for 3 h at 37 °C. The resulting formazan product was dissolved with DMSO. The absorbance at a wavelength of 490 nm was recorded using a microplate reader (BioTek Instruments Inc., USA).
Regarding `CCc1cc(C(=O)Nc2nc(-c3ccc(C)c(C)c3)c(C)s2)cs1` [Compound 23], the half-maximal inhibitory concentration (IC50) – broadly, the point on the concentration scale where inhibition reaches its midpoint – came to 2.22 µM.
The same measure, in the same setting: the result for `Cc1ccc(-c2csc(NC(=O)c3cccc4ccccc34)n2)c(C)c1` [Compound 24] reads 1.34 µM; that for `O=C(Nc1ncc([N+](=O)[O-])s1)c1ccccc1O` [TIZ, tizoxanide, reference compound], 22.4 µM.
On the same count and under the same terms, the result for `Cc1ccc(C)c(-c2csc(NC(=O)c3ccc(-c4ccccc4)cc3)n2)c1` [Compound 21] reads 1.67 µM; that for `Cc1ccc(C(=O)Nc2nc(-c3ccccc3)c(C)s2)cc1` [Compound 22], 2.42 µM; that for `CC(=O)Oc1ccccc1C(=O)Nc1ncc([N+](=O)[O-])s1` [NTZ, nitazoxanide, reference compound], 19.4 µM.

A further test deals with U87MG cells. The experiment in a line: Cell proliferation (MTT) assay, parental U87MG. In kind it is cell-based. Conditions: Homo sapiens, U-87 MG, inhibition of cell proliferation/viability. How it is done:
as §1, §2
Regarding `CCc1cc(C(=O)Nc2nc(-c3ccc(C)c(C)c3)c(C)s2)cs1` [Compound 23], the half-maximal inhibitory concentration (IC50) turned out to be 29.1 µM.
Still for that read-out and setting: the result for `Cc1ccc(-c2csc(NC(=O)c3cccc4ccccc34)n2)c(C)c1` [Compound 24] reads 24.5 µM; that for `O=C(Nc1ncc([N+](=O)[O-])s1)c1ccccc1O` [TIZ, tizoxanide, reference compound], 82.9 µM.
Still for that read-out and setting: the result for `Cc1ccc(C)c(-c2csc(NC(=O)c3ccc(-c4ccccc4)cc3)n2)c1` [Compound 21] reads 16.6 µM.
As to `Cc1ccc(C(=O)Nc2nc(-c3ccccc3)c(C)s2)cc1` [Compound 22], the 50% inhibitory concentration (IC50) turned out to be 11.2 µM.
Same read-out and setting: the result for `CC(=O)Oc1ccccc1C(=O)Nc1ncc([N+](=O)[O-])s1` [NTZ, nitazoxanide, reference compound] reads 66.7 µM.
